pEC50, pIC50, pKd, pKi: −log10 of the molar value. Values after ≈ are worked out from the molar mass of the structure shown. One block for each compound: values may come before it.
Experiments:
[1] = molecular target: T1, Serine/threonine-protein kinase PAK 4 (Homo sapiens, UniProt O96013); test: Inhibition of PAK4 (unknown origin) using 5-FAM-AhxKKRNRRLSVA-amide as substrate incubated for 90 mins by caliper off-chip mobility shift assay
Target sequence in this assay (O96013 whole entry): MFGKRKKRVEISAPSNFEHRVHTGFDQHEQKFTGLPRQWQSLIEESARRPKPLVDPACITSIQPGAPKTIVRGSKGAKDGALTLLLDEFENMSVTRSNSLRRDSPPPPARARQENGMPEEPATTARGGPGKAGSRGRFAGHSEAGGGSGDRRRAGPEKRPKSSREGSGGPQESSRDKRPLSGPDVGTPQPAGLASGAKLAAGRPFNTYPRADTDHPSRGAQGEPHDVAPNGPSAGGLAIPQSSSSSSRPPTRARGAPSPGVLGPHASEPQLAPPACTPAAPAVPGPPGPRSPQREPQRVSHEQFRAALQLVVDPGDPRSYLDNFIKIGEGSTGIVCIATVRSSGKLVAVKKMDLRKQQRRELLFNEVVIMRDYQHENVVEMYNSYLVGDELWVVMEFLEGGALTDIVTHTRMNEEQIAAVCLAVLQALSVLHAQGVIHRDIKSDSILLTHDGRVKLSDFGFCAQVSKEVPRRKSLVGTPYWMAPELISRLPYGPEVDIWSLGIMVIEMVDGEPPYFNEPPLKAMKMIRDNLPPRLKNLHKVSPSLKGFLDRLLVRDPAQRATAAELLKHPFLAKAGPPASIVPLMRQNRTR

[2] = molecular target: T1, Serine/threonine-protein kinase PAK 4; test: Inhibition of PAK4 (unknown origin)
Target sequence in this assay (O96013 whole entry): as above

[3] = Kinetic solubility of compound; type: physicochemical; conditions: read-out: Kinetic_solubility
[4] = molecular target: Serine/threonine-protein kinase PAK 2 (Homo sapiens, UniProt Q13177); test: Binding affinity to PAK2 (unknown origin) assessed as dissociation constant
[5] = molecular target: T1, Serine/threonine-protein kinase PAK 4; test: Inhibition of PAK4 (unknown origin) in presence of ATP by Z-LYTE enzymatic kinase assay
Target sequence in this assay (O96013 whole entry): as above

[6] = molecular target: Serine/threonine-protein kinase PAK 4 (Mus musculus, UniProt Q8BTW9); test: Inhibition of PAK4 in mouse NIH3T3 cells assessed as reduction in phosphorylated GEF-H1 accumulation incubated for 30 mins by immunoblotting analysis; type: cell-based
[7] = molecular target: T1, Serine/threonine-protein kinase PAK 4; test: Inhibition of PAK4 (unknown origin) at 10 uM relative to control
Target sequence in this assay (O96013 whole entry, looked up): as the sequence (O96013 whole entry) above

[8] = molecular target: Serine/threonine-protein kinase PAK 3 (Homo sapiens, UniProt O75914); test: Binding affinity to PAK3 (unknown origin) assessed as dissociation constant
[9] = molecular target: T1, Serine/threonine-protein kinase PAK 4; test: Binding affinity to PAK4 (unknown origin) assessed as dissociation constant
Target sequence in this assay (O96013 whole entry): as above

[10] = molecular target: Serine/threonine-protein kinase PAK 5 (Homo sapiens, UniProt Q9P286); test: Binding affinity to PAK7 (unknown origin) assessed as dissociation constant
[11] = molecular target: Serine/threonine-protein kinase PAK 6 (Homo sapiens, UniProt Q9NQU5); test: Inhibition of recombinant PAK6 (unknown origin)
[12] = molecular target: Cyclin-dependent kinase 7 (Homo sapiens, UniProt P50613); test: Inhibition of CDK7 (unknown origin)
[13] = Inhibition of p53/pin 1 (unknown origin) interaction; design: species or system Homo sapiens
[14] = molecular target: Tumour suppressor p53/oncoprotein Mdm2 (Homo sapiens, UniProt P04637+Q00987); test: Inhibition of MDM2/p53 (unknown origin) interaction; type: protein assay
[15] = tested on: HCT-116; test: Antitumor activity against human HCT-116 cells xenografted in mouse assessed as tumor growth inhibition at 7.5 to 30 mg/kg, po measured for 9 to 18 days; type: functional; conditions: dose 7.5-30 mg/kg, time 9-18 day
[16] = tested on: COLO 205; test: Antitumor activity against human COLO 205 cells xenografted in mouse assessed as tumor growth inhibition at 7.5 to 30 mg/kg, po measured for 9 to 18 days; type: functional; conditions: dose 7.5-30 mg/kg, time 9-18 day
[17] = tested on: MDA-MB-231; test: Antitumor activity against human MDA-MB-231 cells xenografted in mouse assessed as tumor growth inhibition at 7.5 to 30 mg/kg, po measured for 9 to 18 days; type: functional; conditions: dose 7.5-30 mg/kg, time 9-18 day
[18] = tested on: A549; test: Antitumor activity against human A549 cells xenografted in mouse assessed as tumor growth inhibition at 7.5 to 30 mg/kg, po measured for 9 to 18 days; type: functional; conditions: dose 7.5-30 mg/kg, time 9-18 day
[19] = tested on: M24met; test: Antitumor activity against human M24met cells xenografted in mouse assessed as tumor growth inhibition at 7.5 to 30 mg/kg, po measured for 9 to 18 days; type: functional; conditions: dose 7.5-30 mg/kg, time 9-18 day
[20] = Apparent permeability across apical to basolateral side in human Caco-2 cells; type: ADME, cell-based
[21] = tested on: HCT-116; test: Antitumor activity against human HCT-116 cells xenografted in mouse assessed as downregulation of GEF-H1 phosphorylation at 25 mg/kg, po measured after 18 hrs; type: functional
[22] = Clearance in rat at 10 mg/kg, po; type: ADME, organism-based; conditions: in vivo
[23] = Oral bioavailability in dog at 10 mg/kg; type: ADME, organism-based, Canis lupus familiaris; conditions: in vivo
[24] = Clearance in dog at 10 mg/kg, po; type: ADME, organism-based, Canis lupus familiaris; conditions: in vivo
[25] = Half life in dog at 10 mg/kg, po; type: ADME, organism-based, Canis lupus familiaris; conditions: in vivo
[26] = tested on: HCT-116; test: Antitumor activity against human HCT-116 cells xenografted in mouse assessed as tumor growth inhibition at 12 mg/kg, po; type: functional; conditions: read-out: TGI
[27] = tested on: HCT-116; test: Antitumor activity against human HCT-116 cells xenografted in mouse assessed as tumor growth inhibition at 20 mg/kg, po; type: functional; conditions: read-out: TGI
[28] = tested on: M24met; test: Antitumor activity against human M24met cells xenografted in mouse assessed as tumor growth inhibition at 15 mg/kg, po; type: functional; conditions: read-out: TGI
[29] = molecular target: T1, Serine/threonine-protein kinase PAK 4; test: Inhibition of PAK4 (unknown origin) assessed as inhibition constant
Target sequence in this assay (O96013 whole entry): as above

Serine/threonine-protein kinase PAK 4 (Mus musculus, UniProt Q8BTW9), sequence (Q8BTW9 whole entry): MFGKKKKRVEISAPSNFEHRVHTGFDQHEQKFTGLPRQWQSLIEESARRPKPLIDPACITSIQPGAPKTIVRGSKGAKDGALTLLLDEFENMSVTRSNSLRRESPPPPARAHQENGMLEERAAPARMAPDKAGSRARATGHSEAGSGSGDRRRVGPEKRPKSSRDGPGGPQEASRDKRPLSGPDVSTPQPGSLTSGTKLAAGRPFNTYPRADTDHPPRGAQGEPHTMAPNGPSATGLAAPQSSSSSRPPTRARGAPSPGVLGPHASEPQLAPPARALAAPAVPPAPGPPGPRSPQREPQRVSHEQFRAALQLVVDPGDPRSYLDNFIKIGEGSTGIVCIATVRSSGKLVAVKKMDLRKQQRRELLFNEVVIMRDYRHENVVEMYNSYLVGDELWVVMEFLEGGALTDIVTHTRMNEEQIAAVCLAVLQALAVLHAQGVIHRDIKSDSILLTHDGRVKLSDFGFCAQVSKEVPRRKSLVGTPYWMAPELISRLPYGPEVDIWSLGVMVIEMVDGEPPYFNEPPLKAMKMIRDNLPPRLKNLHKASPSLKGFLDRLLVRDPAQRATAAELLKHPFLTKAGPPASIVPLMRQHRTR
Serine/threonine-protein kinase PAK 2, sequence (Q13177 whole entry): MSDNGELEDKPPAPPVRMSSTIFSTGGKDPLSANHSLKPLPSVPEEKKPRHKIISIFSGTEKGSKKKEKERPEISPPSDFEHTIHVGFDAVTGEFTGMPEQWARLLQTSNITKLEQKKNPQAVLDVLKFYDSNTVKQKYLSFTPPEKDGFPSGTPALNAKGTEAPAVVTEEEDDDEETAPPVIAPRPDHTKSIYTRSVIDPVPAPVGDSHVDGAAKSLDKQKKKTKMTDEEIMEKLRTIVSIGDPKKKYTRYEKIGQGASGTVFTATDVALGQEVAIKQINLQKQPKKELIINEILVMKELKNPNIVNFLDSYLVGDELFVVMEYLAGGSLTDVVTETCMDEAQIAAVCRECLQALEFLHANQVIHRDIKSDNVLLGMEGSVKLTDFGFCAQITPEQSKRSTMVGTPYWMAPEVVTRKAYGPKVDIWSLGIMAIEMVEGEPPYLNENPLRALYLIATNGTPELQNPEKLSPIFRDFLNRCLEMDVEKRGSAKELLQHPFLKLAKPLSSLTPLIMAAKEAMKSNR
Tumour suppressor p53/oncoprotein Mdm2, sequence (P04637 whole entry): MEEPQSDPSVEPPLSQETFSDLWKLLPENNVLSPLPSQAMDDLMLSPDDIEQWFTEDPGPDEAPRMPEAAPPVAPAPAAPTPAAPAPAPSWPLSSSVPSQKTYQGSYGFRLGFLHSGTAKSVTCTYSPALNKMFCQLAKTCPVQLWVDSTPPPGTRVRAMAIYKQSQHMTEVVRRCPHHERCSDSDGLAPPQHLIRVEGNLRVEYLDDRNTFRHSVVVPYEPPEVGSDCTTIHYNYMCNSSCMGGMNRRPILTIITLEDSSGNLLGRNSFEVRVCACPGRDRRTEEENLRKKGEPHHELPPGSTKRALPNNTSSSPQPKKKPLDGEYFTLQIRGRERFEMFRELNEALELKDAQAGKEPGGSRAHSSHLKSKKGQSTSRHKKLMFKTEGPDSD
Tumour suppressor p53/oncoprotein Mdm2, sequence (Q00987 whole entry): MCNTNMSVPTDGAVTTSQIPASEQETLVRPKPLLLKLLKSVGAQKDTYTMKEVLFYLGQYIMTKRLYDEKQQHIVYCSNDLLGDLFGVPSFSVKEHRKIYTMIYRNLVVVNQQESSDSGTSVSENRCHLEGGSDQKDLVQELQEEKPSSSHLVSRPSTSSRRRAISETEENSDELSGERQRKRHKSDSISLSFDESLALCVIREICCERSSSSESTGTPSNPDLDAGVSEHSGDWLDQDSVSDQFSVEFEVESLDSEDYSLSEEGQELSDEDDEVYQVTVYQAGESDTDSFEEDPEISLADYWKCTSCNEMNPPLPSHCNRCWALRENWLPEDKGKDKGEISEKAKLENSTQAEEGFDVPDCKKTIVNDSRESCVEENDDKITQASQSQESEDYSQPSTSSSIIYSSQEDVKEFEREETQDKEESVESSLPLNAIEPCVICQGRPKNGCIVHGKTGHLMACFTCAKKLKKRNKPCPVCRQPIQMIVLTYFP
Serine/threonine-protein kinase PAK 3, sequence (O75914 whole entry): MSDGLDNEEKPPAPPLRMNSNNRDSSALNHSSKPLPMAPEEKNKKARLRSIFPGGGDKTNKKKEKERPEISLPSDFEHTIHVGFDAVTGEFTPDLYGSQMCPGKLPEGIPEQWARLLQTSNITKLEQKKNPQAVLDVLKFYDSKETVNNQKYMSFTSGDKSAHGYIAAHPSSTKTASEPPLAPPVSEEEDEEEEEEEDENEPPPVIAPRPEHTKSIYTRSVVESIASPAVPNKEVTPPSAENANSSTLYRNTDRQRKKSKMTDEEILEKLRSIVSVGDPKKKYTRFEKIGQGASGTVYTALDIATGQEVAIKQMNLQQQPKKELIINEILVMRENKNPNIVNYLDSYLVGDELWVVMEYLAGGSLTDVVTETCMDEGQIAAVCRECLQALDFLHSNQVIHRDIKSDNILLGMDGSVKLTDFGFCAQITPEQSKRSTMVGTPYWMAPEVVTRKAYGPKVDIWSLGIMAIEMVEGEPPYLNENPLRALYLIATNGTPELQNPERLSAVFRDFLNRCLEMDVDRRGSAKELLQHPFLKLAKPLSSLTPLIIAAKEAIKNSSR
Serine/threonine-protein kinase PAK 6, sequence (Q9NQU5 whole entry): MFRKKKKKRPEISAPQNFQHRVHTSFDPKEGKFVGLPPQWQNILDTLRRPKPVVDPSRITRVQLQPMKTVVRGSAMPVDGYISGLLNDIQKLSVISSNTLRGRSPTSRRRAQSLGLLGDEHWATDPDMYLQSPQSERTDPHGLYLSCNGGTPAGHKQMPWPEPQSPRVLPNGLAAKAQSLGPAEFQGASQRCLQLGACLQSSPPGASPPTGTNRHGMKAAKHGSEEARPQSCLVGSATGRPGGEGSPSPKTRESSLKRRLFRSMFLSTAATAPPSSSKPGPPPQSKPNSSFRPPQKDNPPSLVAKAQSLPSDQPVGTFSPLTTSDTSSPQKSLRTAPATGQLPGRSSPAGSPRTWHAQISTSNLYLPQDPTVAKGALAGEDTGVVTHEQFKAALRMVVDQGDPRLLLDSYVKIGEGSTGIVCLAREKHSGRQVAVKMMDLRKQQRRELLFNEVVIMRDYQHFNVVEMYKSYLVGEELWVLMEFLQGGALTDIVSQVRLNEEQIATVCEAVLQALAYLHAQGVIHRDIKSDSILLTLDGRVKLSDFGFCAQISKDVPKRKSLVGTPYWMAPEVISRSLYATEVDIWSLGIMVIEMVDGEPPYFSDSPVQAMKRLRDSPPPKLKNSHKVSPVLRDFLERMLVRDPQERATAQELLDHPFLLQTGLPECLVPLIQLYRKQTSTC
Cyclin-dependent kinase 7, sequence (P50613 whole entry): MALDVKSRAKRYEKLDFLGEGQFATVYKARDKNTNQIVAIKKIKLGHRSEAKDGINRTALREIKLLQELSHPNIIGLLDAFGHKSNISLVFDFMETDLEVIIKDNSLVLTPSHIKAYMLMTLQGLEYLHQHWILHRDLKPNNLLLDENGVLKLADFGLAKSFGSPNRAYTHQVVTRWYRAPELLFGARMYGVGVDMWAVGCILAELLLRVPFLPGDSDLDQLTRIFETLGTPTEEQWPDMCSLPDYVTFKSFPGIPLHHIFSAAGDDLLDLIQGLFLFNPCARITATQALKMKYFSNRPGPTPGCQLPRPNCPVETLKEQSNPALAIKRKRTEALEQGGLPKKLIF

SMILES: O=C(c1ccccc1Cl)c1n[nH]c2ncc(-c3cnn(C4CCNCC4)c3)cc12
pIC50 [1]: 6.26

SMILES: CCn1c(=O)c(-c2ccc(-c3noc(C)n3)cc2Cl)cc2cnc(Nc3ccc(C4CCN(C)CC4)cc3)nc21
pIC50 [2]: 6.02

SMILES: CC(C)NC(=O)N1CCC(NC2=Nc3cc(F)ccc3N(CC(F)F)c3ccc(Cl)cc32)C1 (stereo not given)
solubility kinetic [3]: 55 µM (≈ 26.4 µg/mL) | pKd [4]: 6.40

SMILES: CCn1c(=O)c(-c2ccc(-c3cncs3)cc2Cl)cc2cnc(Nc3ccc(N4CCN(C)CC4)cc3)nc21
pIC50 [5]: < 5.00

SMILES: CCn1cnc2c(Nc3cccc(Cl)c3)nc(NC3CCCCC3N)nc21 (stereo not given)
inhibition [7]: 44%

SMILES: CCN1c2ccc(F)cc2N=C(NC2CCN(C(=O)NC(C)(C)C)C2)c2cc(Cl)ccc21 (stereo not given)
pKd [4]: 5.96 | pKd [8]: < 4.40 | pKd [9]: < 4.40 | pKd [10]: < 4.40

SMILES: N[C@@H]1[C@H]2CN(c3nc(Nc4cc(C5CC5)[nH]n4)c4sccc4n3)C[C@@H]12
pKi [29]: 8.40

SMILES: COc1nc(NCCc2c[nH]c3ccccc23)nc(Nc2ccc3[nH]ncc3c2)n1
pIC50 [2]: 6.10

The next lines start with results.

pEC50 [6]: 7.89
SMILES: CN(C)C[C@@H](NC(=O)c1ccc2[nH]nc(-c3nc4ccccc4[nH]3)c2c1)c1ccccc1

pEC50 [6]: 6.09
SMILES: CN1CCN(C(=O)N2Cc3c(NC(=O)c4cccc(Oc5ccccc5)c4)n[nH]c3C2(C)C)[C@@H](Cc2ccccc2)C1

pIC50 [11]: ~7.70 | pIC50 [12]: 8.15 | pIC50 [13]: 8.24 | pIC50 [14]: 8.25
SMILES: Cc1nc(Nc2n[nH]c3c2CN(C(=O)N[C@H](CN(C)C)c2ccccc2)C3(C)C)c2sccc2n1 [PF-03758309]
TGI [15]: >70% | TGI [16]: >70% | TGI [17]: >70% | TGI [18]: >70% | TGI [19]: >70%

pEC50 [6]: 7.49 | Papp A→B [20]: 0.1 ×10⁻⁶ cm/s
SMILES: CN(C)C[C@@H](NC(=O)N1Cc2c(NC(=O)c3ccccc3)n[nH]c2C1(C)C)c1ccccc1
Activity [21]: ~61%

pEC50 [6]: 8.40 | Papp A→B [20]: 1.7 ×10⁻⁶ cm/s | CL/F [22]: 52 mL/min/kg | bioavailability [23]: 20% | CL/F [24]: 12 mL/min/kg | half-life [25]: 2.2 h
SMILES: CN(C)C[C@@H](OC(=O)N1Cc2c(NC(=O)C(C)(C)C)n[nH]c2C1(C)C)c1ccccc1
inhibition in vivo at 12 mg/kg [26]: 37% | inhibition in vivo at 20 mg/kg [27]: 52% | inhibition in vivo at 15 mg/kg [28]: 68%

Reference: ChEMBL document CHEMBL5678812, “Inhibitors of p21-activated kinases (PAKs)” (J Med Chem, 2015)
